Reference: the supplement of paper PMC11208160

Experiment: recombinant barcode read abundance after kanamycin selection (control-corrected) (log10(CPM+1)); higher = more efficient recombination; sequences stand for … in AGTGCAGAGAAAATCGGCCAGTTTTCTCTGCCTGCAGTCCGCATGCCGT…AGATTTATGCAGCGGACTGCCTTTCTCCCAAAGTGATAAACCGGACAGTATCATGGACCGGTTTTCCCGGTAATCCGTATTTGCAAGGTTGGTTTCACT; site = the 11-nt target
Procedure, shortened: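 Each value is log10(CPM+1). It describes recombination efficiency, taken as averaged, control-corrected counts per million of barcodes at recombinant junctions. The pooled E. coli library paired targets with IS621 bridge RNA target-binding loops, was co-electroporated with a donor plasmid, and was plated twice on chloramphenicol/ampicillin LB agar (control) and twice on chloramphenicol/ampicillin/kanamycin containing 0.1 mM IPTG.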
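Further: IS621 recombinase and bridge RNA in Escherichia coli cells.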

Sequence | recombinant barcode read abundance (log10)
AGATTTACTTGGGTTCTAACCTGTTGCCT (site AAACTTACTAG) | 1.28
AGATTTACTTGGGTTCTAACCTGTTGCCT (site AGATTTACTAG) | 0.143
AGCACGACTTGGGTTCTAACCTGTTGCTG (site AGCACGACTCA) | 0.684
AGCACGACTTGGGTTCTAACCTGTTGCTG (site AGCAGGACTCG) | 0.157
AGCAGAGCTTGGGTTCTAACCTGTTGCTG (site AGCAGAGCTCA) | 1.39
AGCAGAGCTTGGGTTCTAACCTGTTGCTG (site AGCAGAGCTCC) | 1.94
AGCAGAGCTTGGGTTCTAACCTGTTGCTG (site AGCAGAGCTCG) | 0.133
AGCAGAGCTTGGGTTCTAACCTGTTGCTG (site AGCAGAGCTCT) | 0.93
AGCATCACTTGGGTTCTAACCTGTTGCCT (site AACATCACTCG) | 0.135
AGCATCACTTGGGTTCTAACCTGTTGCCT (site AGCATCACTAG) | 0.499
AGCATTGCTTGGGTTCTAACCTGTTGCCT (site AGCATTGCTAG) | 0.235
AGCATTGCTTGGGTTCTAACCTGTTGCCT (site AGCCTTGCTAG) | 0.629
AGCATTGCTTGGGTTCTAACCTGTTGCCT (site AGCGTTGCTAG) | 0.724
AGCATTGCTTGGGTTCTAACCTGTTGCCT (site AGCTTTGCTAG) | 0.0996
AGCCACCCTTGGGTTCTAACCTGTTGCCT (site AGCCACACTAG) | 0.201
AGCCACCCTTGGGTTCTAACCTGTTGCCT (site AGCCACCCTAG) | 0.425
AGCCACCCTTGGGTTCTAACCTGTTGCCT (site AGCCACGCTAG) | 0.265
AGCCACCCTTGGGTTCTAACCTGTTGCCT (site AGCCACTCTAG) | 0.522
AGCCGCCCTTGGGTTCTAACCTGTTGCAT (site AGCCGCCCTAT) | 0.172
AGCCGCCCTTGGGTTCTAACCTGTTGCAT (site CGCCGCCCTAG) | 0.119
AGCCGTACTTGGGTTCTAACCTGTTGCCT (site AGACGTACTAG) | 0.129
AGCCGTACTTGGGTTCTAACCTGTTGCCT (site AGCCGTACTAG) | 0.341

Sequence | recombinant barcode read abundance (log10)
AGCCGTACTTGGGTTCTAACCTGTTGCCT (site AGGCGTACTAG) | 0.318
AGCCGTACTTGGGTTCTAACCTGTTGCCT (site AGTCGTACTAG) | 0.0183
AGCCTGCCTTGGGTTCTAACCTGTTGCCT (site AGCCTGACTAG) | 0.0617
AGCCTGCCTTGGGTTCTAACCTGTTGCCT (site AGCCTGCCTAG) | 0.389
AGCCTGCCTTGGGTTCTAACCTGTTGCCT (site AGCCTGGCTAG) | 0.549
AGCCTGCCTTGGGTTCTAACCTGTTGCCT (site AGCCTGTCTAG) | 0.0826
AGCCTGTCTTGGGTTCTAACCTGTTGCCT (site AGCCTGACTAG) | 0.444
AGCCTGTCTTGGGTTCTAACCTGTTGCCT (site AGCCTGCCTAG) | 0
AGCCTGTCTTGGGTTCTAACCTGTTGCCT (site AGCCTGGCTAG) | 0.143
AGCCTGTCTTGGGTTCTAACCTGTTGCCT (site AGCCTGTCTAG) | 1.36
AGCGAATCTTGGGTTCTAACCTGTTGCCG (site AGCGAATCTCG) | 0.217
AGCGAATCTTGGGTTCTAACCTGTTGCCG (site GAGCGTCCTTA) | 0.232
AGCGCGACTTGGGTTCTAACCTGTTGCCT (site AGCGCGACTAG) | 0.381
AGCGCGACTTGGGTTCTAACCTGTTGCCT (site AGGACGACTAG) | 0.338
AGCGCTCCTTGGGTTCTAACCTGTTGCGT (site AGCCCTCCTAT) | 0.532
AGCGCTCCTTGGGTTCTAACCTGTTGCGT (site AGCGCTCCTAC) | 0.646
AGCGGGCCTTGGGTTCTAACCTGTTGCCT (site AGCGGACCTAG) | 0.382
AGCGGGCCTTGGGTTCTAACCTGTTGCCT (site AGCGGCCCTAG) | 1.08
AGCGGGCCTTGGGTTCTAACCTGTTGCCT (site AGCGGGCCTAG) | 0.313
AGCGGGCCTTGGGTTCTAACCTGTTGCCT (site AGCGGTCCTAG) | 0.072
AGCTAAACTTGGGTTCTAACCTGTTGCCT (site AGCTAAACTAG) | 0.256
AGCTAAACTTGGGTTCTAACCTGTTGCCT (site AGCTTATCTAG) | 0.141

Sequence | recombinant barcode read abundance (log10)
AGCTACTCTTGGGTTCTAACCTGTTGCTT (site AGCTACTCTAA) | 0.694
AGCTACTCTTGGGTTCTAACCTGTTGCTT (site AGTTAATCTAA) | 0.144
AGCTCATCTTGGGTTCTAACCTGTTGCCT (site AGCTCACCTAG) | 0.0516
AGCTCATCTTGGGTTCTAACCTGTTGCCT (site AGCTCATCTAG) | 0.0912
AGCTTAGCTTGGGTTCTAACCTGTTGCCG (site AGCTTAGCTAG) | 0.14
AGCTTAGCTTGGGTTCTAACCTGTTGCCG (site AGCTTAGCTCG) | 0.19
AGCTTAGCTTGGGTTCTAACCTGTTGCCG (site AGCTTAGCTGG) | 0.0372
AGCTTAGCTTGGGTTCTAACCTGTTGCCG (site AGCTTAGCTTG) | 0.188
AGGAATTCTTGGGTTCTAACCTGTTGCCT (site AGAAATTCTAG) | 0.443
AGGAATTCTTGGGTTCTAACCTGTTGCCT (site AGCAATTCTAG) | 0.356
AGGAATTCTTGGGTTCTAACCTGTTGCCT (site AGGAATTCTAG) | 1.59
AGGAATTCTTGGGTTCTAACCTGTTGCCT (site AGTAATTCTAG) | 0
AGGACTTCTTGGGTTCTAACCTGTTGCCT (site AGGACTTCTAG) | 0.618
AGGACTTCTTGGGTTCTAACCTGTTGCCT (site AGGATTACTAG) | 0.704
AGGAGCCCTTGGGTTCTAACCTGTTGCTG (site AGGAGCCCTAA) | 0.0752
AGGAGCCCTTGGGTTCTAACCTGTTGCTG (site AGGAGCCCTCA) | 1.75
AGGAGCCCTTGGGTTCTAACCTGTTGCTG (site AGGAGCCCTGA) | 0.0914
AGGAGCCCTTGGGTTCTAACCTGTTGCTG (site AGGAGCCCTTA) | 0.194
AGGAGCTCTTGGGTTCTAACCTGTTGCTA (site AGGAACTCTAA) | 0.131
AGGAGCTCTTGGGTTCTAACCTGTTGCTA (site AGGAGCTCTTA) | 1.27
AGGATAACTTGGGTTCTAACCTGTTGCCT (site AGGATAACTAG) | 0.655
AGGATAACTTGGGTTCTAACCTGTTGCCT (site AGGATACCTAG) | 0

Sequence | recombinant barcode read abundance (log10)
AGGATACCTTGGGTTCTAACCTGTTGCCT (site AGGATAACTAG) | 0.219
AGGATACCTTGGGTTCTAACCTGTTGCCT (site AGGATACCTAG) | 1.56
AGGATATCTTGGGTTCTAACCTGTTGCCT (site AAGATATCTAG) | 0.114
AGGATATCTTGGGTTCTAACCTGTTGCCT (site ACGATATCTAG) | 0.14
AGGATATCTTGGGTTCTAACCTGTTGCCT (site AGGATATCTAG) | 0.559
AGGATATCTTGGGTTCTAACCTGTTGCCT (site ATGATATCTAG) | 0.261
AGGATCCCTTGGGTTCTAACCTGTTGCAT (site AGGATCCCTAT) | 1.99
AGGATCCCTTGGGTTCTAACCTGTTGCAT (site AGGATCCCTCT) | 1.07
AGGATTACTTGGGTTCTAACCTGTTGCCT (site AGGACTTCTAG) | 0.161
AGGATTACTTGGGTTCTAACCTGTTGCCT (site AGGATTACTAG) | 0.641
AGGCACTCTTGGGTTCTAACCTGTTGCTG (site AGGCACTCTCA) | 2.35
AGGCACTCTTGGGTTCTAACCTGTTGCTG (site TGGCACTCTAA) | 0.0921
AGGCATCCTTGGGTTCTAACCTGTTGCCT (site AAGCATCCTAG) | 0.32
AGGCATCCTTGGGTTCTAACCTGTTGCCT (site ACGCATCCTAG) | 0.202
AGGCATCCTTGGGTTCTAACCTGTTGCCT (site AGGCATCCTAG) | 0.147
AGGCATCCTTGGGTTCTAACCTGTTGCCT (site ATGCATCCTAG) | 0.0852
AGGCCGCCTTGGGTTCTAACCTGTTGCCG (site AGGCCGCCTCG) | 1.17
AGGCCGCCTTGGGTTCTAACCTGTTGCCG (site AGGCCGGCTCG) | 0.178
AGGGAGACTTGGGTTCTAACCTGTTGCCA (site AGGAAGACTTG) | 1.63
AGGGAGACTTGGGTTCTAACCTGTTGCCA (site AGGCAGACTTG) | 0.0382
